In series [1] the test system is Caco-2 cells. The series is described as follows: Caco-2 cellular permeability. The settings on record: ratio of Papp apical to basolateral / basolateral to apical.
Method: For example, passive permeability can be evaluated by examining the flux of a prodrug across a cultured polarized cell monolayer (e.g., Caco-2 cells).
Caco-2 cells obtained from continuous culture (passage less than 28) were seeded at high density onto Transwell polycarbonate filters. Cells were maintained with DMEM/10% fetal bovine serum, 1 mM nonessential amino acids, and 6 mM L-Gln, 5% CO2/95% O2, at 37° C. until the day of the experiment. Permeability studies were conducted at pH 6.5 apically (in 50 mM MES buffer containing 1 mM CaCl2, 1 mM MgCl2, 150 mM NaCl, 3 mM KCl, 1 mM NaH2PO4, 5 mM glucose) and pH 7.4 basolaterally (in Hanks' balanced salt solution containing 10 mM HEPES) in the presence of efflux pump inhibitors (250 μM MK-571 and 250 μM Verapamil). Inserts were placed in 12 or 24 well plates containing buffer and incubated for 30 min at 37° C. Prodrug (200 μM) was added to the apical or basolateral compartment (donor) and concentrations of prodrug and/or released parent drug in the opposite compartment (receiver) were determined at intervals over 1 hour using LC/MS/MS. Values of apparent permeability (Papp) were calculated using the equation: Papp=Vr(dC/dt)//(ACo) where Vr is the volume of the receiver compartment in mL; dC/dt is the total flux of prodrug and parent drug (μM/sec), determined from the slope of the plot of concentration in the receiver compartment versus time; C0 is the initial concentration of prodrug in μM; and A is the surface area of the membrane in cm^2.
The nature of series [2]: Pharmacokinetics of tranexamic acid after administration of tranexamic acid or prodrug to rats. It is filed as in vivo, Sprague-Dawley rats. Conditions: for F* (bioavailability of tranexamic acid) / Cmax / AUCinf / AUCt / T1/2-λ / Tmax: rat, mean (SD); for F* (bioavailability of tranexamic acid): versus i.v. tranexamic acid AUCinf 22.2 hr·μg/mL; for Cmax / AUCinf / AUCt / T1/2-λ / Tmax: tranexamic acid in blood. The method, then: Tranexamic acid or a tranexamic acid prodrug of the present disclosure was administered as an intravenous bolus injection (i.v.), by oral gavage (p.o.), or by intracolonic (i.c.) administration via an indwelling catheter in the ascending colon to groups of four to six adult male Sprague-Dawley rats (weight approximately 250 g). Animals were fasted overnight before the study and for 4 hours post-dosing and were conscious at the time of the experiment. When administered intravenously, tranexamic acid was administered as a solution in water at a dose equivalent to 16 mg (0.1 mmol) of tranexamic acid per kg body weight. Prodrugs were orally or intracolonically administered as a suspension in 0.5% methyl cellulose in 0.1% Tween 80 at a dose equivalent to 16 mg (0.1 mmol) of tranexamic acid per kg body weight. Blood samples (300 μL) were obtained via a jugular vein cannula at intervals over 8 hours after oral dosing. Blood was quenched immediately using methanol and then was frozen at −80° C. until analyzed.
The following procedure was used to prepared blood samples for analysis:
1. Rat blood (100 μL) was collected at different times into K2EDTA tubes, 300 μL of methanol, and the mixture was vortexed to mix the ingredients.
2. Blank rat blood (90 μL) was quenched with 300 μL of methanol. Then ten μL of a standard stock solution (0.04, 0.2, 1, 5, 25, and 100 μg/mL) were added to the tube individually. Then 20 μL of p-chlorophenylalanine (5 μg/mL in 50% methanol) was added to each tube to make up a final calibration standard (0.004, 0.02, 0.1, 0.5, 2.5, and 10 μg/mL). The samples were vortexed and centrifuged at 14,000 rpm for 20 min.
3. To the quenched blood samples were added 20 μL of p-chlorophenylalanine (5 μg/mL in 50% methanol), the samples were vortexed and centrifuged at 14,000 rpm for 20 min.
4. The supernatant was analyzed by LC/MS/MS.
The following method was used for LC/MS/MS Analysis of the prepared blood samples. An API 4000 or 2000 LC/MS/MS spectrometer equipped with Agilent 1100 binary pumps and a CTC HTS-PAL autosampler were used in the analysis. A ThermoHypersil-BetaSil C18, 100×4.6 mm, 5 μm column was used during the analysis. The mobile phase for the analysis of tranexamic acid and prodrug was (A) 0.1% formic acid in water, and (B) 0.1% formic acid in acetonitrile. The gradient condition was: 2% eluent-B to 95% eluent-B for 2.5 min, then to 98% eluent-B to 4.0 min. At 4.1 min, it was returned to 2% eluent-B and maintained at 2% eluent-B till 6.0 min. The flow rate was 1 mL/min. An ESI source was used on the API 4000. The analysis of tranexamic acid was performed in positive ion mode for and negative ion mode was used for analysis of tranexamic acid prodrugs.
The MRM transition for each analyte was optimized using standard solutions. 20 μL of the sample was injected. Non-compartmental analysis was performed using WinNonlin (v.3.1 Professional Version, Pharsight Corporation, Mountain View, Calif.) on individual animal profiles. Summary statistics on major parameter estimates was performed for Cmax (peak observed concentration following dosing), Tmax (time to maximum concentration is the time at which the peak concentration was observed), AUC(0-t) (area under the serum concentration-time curve from time zero to last collection time, estimated using the log-linear trapezoidal method), AUC(0-∞), (area under the serum concentration time curve from time zero to infinity, estimated using the log-linear trapezoidal method to the last collection time with extrapolation to infinity), and t1/2 (terminal half-life).
The oral or intracolonic bioavailability (F) of tranexamic acid was determined by comparing the area under the tranexamic acid concentration vs. time curve (AUC) following oral or intracolonic administration of tranexamic acid or prodrug with the AUC of the tranexamic acid concentration vs. time curve following intravenous administration of tranexamic acid on a dose normalized basis. […]

For series [3] the following is noted: women suffering from idiopathic menorrhagia; cited from earlier work.
For series [4] the following is noted: human patients, oral; cited from earlier work.
Setting [5] is: i.c., dose equivalent to 16 mg/kg.
Where [6] appears, read: p.o., dose equivalent to 16 mg/kg.

For `CC(C)C(=O)OCOC(=O)NC[C@H]1CC[C@H](C(=O)O)CC1` [Compound 4, trans-4-{[(2-Methylpropanoyloxy)methoxycarbonyl]aminomethyl}-Cyclohexanecarboxylic Acid], the “Ratio A-B/B-A” value in series [1] is given as 7.7.
Still for that read-out and setting: the value for `CCCC(=O)OC(C)OC(=O)NC[C@H]1CC[C@H](C(=O)O)CC1` (relative stereo) [Compound 10, trans-4-{[1-(Butanoyloxy)ethoxycarbonyl]aminomethyl}-Cyclohexanecarboxylic Acid] was 4.9.
`CC(OC(=O)NC[C@H]1CC[C@H](C(=O)O)CC1)OC(=O)C(C)C` (stereo partly drawn) [Compound 13, trans-4-{[1-(2-Methylpropanoyloxy)ethoxycarbonyl]-aminomethyl}-Cyclohexanecarboxylic Acid]: the “F* (bioavailability of tranexamic acid)” value was 98 (10) % in series [2] (i.c.) and 73 (9) % in series [2] (p.o.). Besides, the “levels of prodrug following oral gavage administration” value in series [2] (intact prodrug in blood, oral gavage, rat (FIG. 2)) is “below the level of detection”. The Cmax in series [2] (i.c. (intracolonic), dose equivalent to 16 mg/kg) is on record as 7.82 (5.2) μg/mL; in series [2] (p.o., dose equivalent to 16 mg tranexamic acid per kg), 5.64 (0.58) μg/mL. The values for the AUCinf in series [2] (setting [5]) and in series [2] (setting [6]) were 21.8 µg·h/mL and 17.1 (2.0) hr · μg/mL, respectively. Also, the values for the AUCt in series [2] (setting [5]) and in series [2] (setting [6]) were 21.5 (2.3) hr · μg/mL and 15.7 (2.0) hr · μg/mL, respectively. For the same compound, the values for the T1/2-λ in series [2] (setting [5]) and in series [2] (setting [6]) were 4.2 (0.8) h and 2.2 (0.2) h, respectively. The Tmax is listed as 0.5 (0.1) h in series [2] (setting [5]) and 0.8 (0.3) h in series [2] (setting [6]). The “Ratio A-B/B-A” value in series [1] is on record as 4.8.
Turning to `CCCC(OC(=O)NC[C@H]1CC[C@H](C(=O)O)CC1)OC(=O)C(C)C` (relative stereo) [Compound 36, trans-4-{[1-(2-Methylpropanoyloxy)butoxycarbonyl]aminomethyl}-Cyclohexanecarboxylic Acid], in series [1], the “Ratio A-B/B-A” value is on record as 4.5.
On the same count and under the same terms, the value for `CCCCC(=O)OC(OC(=O)NC[C@H]1CC[C@H](C(=O)O)CC1)C(C)C` (relative stereo) [Compound 42, trans-4-{[1-(Pentanoyloxy)-2-methylpropoxycarbonyl]aminomethyl}-Cyclohexanecarboxylic Acid] was 2.9.
With `CCOC(=O)OC(C)OC(=O)[C@H]1CC[C@H](CN)CC1` (relative stereo) [Kabi 2161, 1-(ethoxycarbonyl)oxyethyl trans-4-(aminomethyl)-cyclohexanecarboxylate], in series [3], the “effect on menstrual blood loss” value is recorded as “effective in reducing menstrual blood loss”. For the same compound, the “oral bioavailability of tranexamic acid from prodrug” value in series [4] is listed as “markedly improved”.
In the case of `CC(OC(=O)NC[C@H]1CC[C@H](C(=O)O)CC1)OC(=O)c1ccccc1` (single isomer, unassigned) [Compound 23, trans-4-{[1-(Benzoyloxy)ethoxycarbonyl]aminomethyl}-Cyclohexanecarboxylic Acid], in series [1], the “Ratio A-B/B-A” value is 4.5.
As for `CC(C)CC(=O)OC(C)OC(=O)NC[C@H]1CC[C@H](C(=O)O)CC1` (single isomer, unassigned) [Compound 19, trans-4-{[1-(3-Methylbutanoyloxy)ethoxycarbonyl]aminomethyl}-Cyclohexanecarboxylic Acid], the “Ratio A-B/B-A” value in series [1] turned out to be 5.2.
The same measure, in the same setting: under `CC(C)C(=O)OC(OC(=O)NC[C@H]1CC[C@H](C(=O)O)CC1)C(C)C` (single isomer, unassigned) [Compound 44, trans-4-{[1-(2-Methylpropanoyloxy)-2-methylpropoxycarbonyl]aminomethyl}-Cyclohexanecarboxylic Acid] stands 2.2; under `O=C(NC[C@H]1CC[C@H](C(=O)O)CC1)OCOC(=O)c1ccccc1` [Compound 7, trans-4-{[(Benzoyloxy)methoxycarbonyl]aminomethyl}-Cyclohexanecarboxylic Acid], 4.2; under `CC(C)C(=O)O[C@@H](C)OC(=O)NC[C@H]1CC[C@H](C(=O)O)CC1` [Compound 17, (−)-trans-4-({[(1R)-1-(2-Methylpropanoyloxy)ethoxy]carbonylamino}methyl)-Cyclohexanecarboxylic Acid], 4.0.
Take `CC(C)C(=O)O[C@H](C)OC(=O)NC[C@H]1CC[C@H](C(=O)O)CC1` [Compound 15, (+)-trans-4-({[(S)-1-(2-Methylpropanoyloxy)ethoxy]carbonylamino}methyl)-Cyclohexanecarboxylic Acid]: the “Ratio A-B/B-A” value in series [1] was determined as 6.1.
On the same count and under the same terms, under `CC(C)C(OC(=O)NC[C@H]1CC[C@H](C(=O)O)CC1)OC(=O)C1CCCCC1` (relative stereo) [Compound 48, trans-4-{[1-(Cyclohexylcarbonyloxy)-2-methylpropoxycarbonyl]aminomethyl}-Cyclohexanecarboxylic Acid] stands 3.1; under `CC(C)C(OC(=O)NC[C@H]1CC[C@H](C(=O)O)CC1)OC(=O)c1ccccc1` (relative stereo) [Compound 49, trans-4-{[1-(Benzoyloxy)-2-methylpropoxycarbonyl]aminomethyl}-Cyclohexanecarboxylic Acid], 2.9.

Source of the values: US7777070B2, “Acyloxyalkyl carbamate prodrugs of tranexamic acid, methods of synthesis and use” (XenoPort, Inc., priority 2005, dated 2010).
